Assay results taken from patent US11957759B1, “Rapidly accelerated fibrosarcoma (RAF) degrading compounds and associated methods of use” (Arvinas Operations, Inc., priority 2022, dated 2024).

What was measured:
[1] = target: T1, B-RAF V600E (Homo sapiens, UniProt P15056, V600E); assay: Target protein degradation, assay C: T-Rex 293 cells, HA-BRAF_V600E, 384 well format; type: cell-based; conditions: T-Rex 293 HA-BRAF_V600E cells, 24 hours, Examples 83-269; for DC50: Assay C; for Dmax: T-REx-293, Assay C
T1 construct: expressed in transfected cells; host or cells: T-Rex 293 cells (Invitrogen #R71007)
Method in brief: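 T-Rex 293 cells stably expressing doxycycline-induced (1 ng/mL) HA-BRAF V600E were treated 24 h at 37 °C with compound (300 nM–5 pM, 11 points, 0.5% DMSO). HA immunofluorescence was quantified by high-content imaging to give DC50 and Dmax (% of control); nuclei counts versus DMSO gauged toxicity.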

[2] = target: T2, B-RAF G466V (Homo sapiens, UniProt P15056, G466V); assay: Target protein degradation, assay D: T-Rex 293 cells, HA-BRAF_G466V, 384 well format; type: cell-based; conditions: T-Rex 293 HA-BRAF_G466V cells, 24 hours, Examples 83-269; for DC50: Assay D; for Dmax: T-REx-293, Assay D
T2 construct: expressed in transfected cells; host or cells: T-Rex 293 cells (Invitrogen #R71007)
Method in brief: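 T-Rex 293 cells stably expressing doxycycline-induced (1 ng/mL) HA-BRAF G466V treated 24 h at 37 °C with PROTACs, 11-point 1:3 dilution, 300 nM to 5 pM final, 0.5% DMSO. Fixed cells immunostained for HA and imaged by high-content microscopy; DC50 and Dmax (% of control) derived, toxicity from nuclei counts versus DMSO.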

T2 sequence (P15056 whole entry G466V): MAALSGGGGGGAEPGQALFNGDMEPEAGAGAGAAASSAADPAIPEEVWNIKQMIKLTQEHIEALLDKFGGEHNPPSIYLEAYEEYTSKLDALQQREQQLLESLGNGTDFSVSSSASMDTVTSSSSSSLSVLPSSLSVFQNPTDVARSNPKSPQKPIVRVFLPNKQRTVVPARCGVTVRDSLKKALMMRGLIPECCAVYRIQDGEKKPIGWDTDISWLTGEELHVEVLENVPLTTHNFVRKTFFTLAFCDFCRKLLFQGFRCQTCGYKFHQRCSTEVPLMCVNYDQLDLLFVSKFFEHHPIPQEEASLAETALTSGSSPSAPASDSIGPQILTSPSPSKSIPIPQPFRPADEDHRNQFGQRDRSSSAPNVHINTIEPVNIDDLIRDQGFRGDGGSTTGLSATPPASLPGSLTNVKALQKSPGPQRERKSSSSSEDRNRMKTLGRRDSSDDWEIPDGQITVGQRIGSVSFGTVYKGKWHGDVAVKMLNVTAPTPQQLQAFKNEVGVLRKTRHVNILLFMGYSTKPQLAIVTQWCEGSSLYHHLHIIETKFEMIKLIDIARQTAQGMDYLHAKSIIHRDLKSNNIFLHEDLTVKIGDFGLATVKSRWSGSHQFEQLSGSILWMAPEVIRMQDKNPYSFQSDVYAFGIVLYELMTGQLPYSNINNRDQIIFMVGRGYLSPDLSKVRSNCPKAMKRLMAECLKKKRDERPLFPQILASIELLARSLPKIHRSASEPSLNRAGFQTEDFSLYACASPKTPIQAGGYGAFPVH
T1 sequence (P15056 whole entry V600E): as the sequence (P15056 whole entry G466V) above, with V466G, V600E counted along it

Row | Structure (SMILES) | DC50 [1] | Dmax [1] | DC50 [2] | Dmax [2]
1 | N#Cc1c(NS(=O)(=O)N2CC[C@@H](F)C2)ccc(F)c1Oc1ccc2ncn(-c3ccc(N4CCN(CCCOc5cccc6c5C(=O)N(C5CCC(=O)NC5=O)C6=O)CC4)nc3)c(=O)c2c1 (stereo partly drawn) [Example 150, (3R)-N-{2-cyano-3-[(3-{6-[4-(3-{[2-(2,6-dioxopiperidin-3-yl)-1,3-dioxo-2,3-dihydro-1H-isoindol-4-yl]oxy}propyl)piperazin-1-yl]pyridin-3-yl}-4-oxo-3,4-dihydroquinazolin-6-yl)oxy]-4-fluorophenyl}-3-fluoropyrrolidine-1-sulfonamide] | ≤ 5 nM | 35 to 70% | ≤ 1 nM | ≤ 35%
2 | N#Cc1c(NS(=O)(=O)N2CC[C@@H](F)C2)ccc(F)c1Oc1ccc2ncn(-c3cnc(C4(N5CCN(CC6CCN(c7ccc8c(c7)CN(C7CCC(=O)NC7=O)C8=O)CC6)CC5)CC4)nc3)c(=O)c2c1 (stereo partly drawn) [Example 100, (3R)-N-(2-cyano-3-{[3-(2-{1-[4-({1-[2-(2,6-dioxopiperidin-3-yl)-1-oxo-2,3-dihydro-1H-isoindol-5-yl]piperidin-4-yl}methyl)piperazin-1-yl]cyclopropyl}pyrimidin-5-yl)-4-oxo-3,4-dihydroquinazolin-6-yl]oxy}-4-fluorophenyl)-3-fluoropyrrolidine-1-sulfonamide] | 50 to 500 nM | 35 to 70% | 1 to 10 nM | 35 to 70%
3 | N#Cc1c(NS(=O)(=O)N2CC[C@@H](F)C2)ccc(F)c1Oc1ccc2ncn(-c3ccc(N4CCC5(CC4)CN(CC4CCN(c6ccc7c(c6)CN([C@@H]6CCC(=O)NC6=O)C7=O)CC4)C5)cc3)c(=O)c2c1 [Example 203, (3R)-N-(2-cyano-3-{[3-(4-{2-[(1-{2-[(3R)-2,6-dioxopiperidin-3-yl]-1-oxo-2,3-dihydro-1H-isoindol-5-yl}piperidin-4-yl)methyl]-2,7-diazaspiro[3.5]nonan-7-yl}phenyl)-4-oxo-3,4-dihydroquinazolin-6-yl]oxy}-4-fluorophenyl)-3-fluoropyrrolidine-1-sulfonamide] | 50 to 500 nM | 35 to 70% | 1 to 10 nM | 35 to 70%
4 | N#Cc1c(NS(=O)(=O)N2CC[C@@H](F)C2)ccc(F)c1Oc1ccc2ncn(-c3ccc(N4CCC(CCCN5CCN(c6ccc7c(c6)C(=O)N(C6CCC(=O)NC6=O)C7=O)CC5)CC4)nc3)c(=O)c2c1 (stereo partly drawn) [Example 167, (3R)-N-{2-cyano-3-[(3-{6-[4-(3-{4-[2-(2,6-dioxopiperidin-3-yl)-1,3-dioxo-2,3-dihydro-1H-isoindol-5-yl]piperazin-1-yl}propyl)piperidin-1-yl]pyridin-3-yl}-4-oxo-3,4-dihydroquinazolin-6-yl)oxy]-4-fluorophenyl}-3-fluoropyrrolidine-1-sulfonamide] | 50 to 500 nM | 35 to 70% | 1 to 10 nM | ≤ 35%
5 | Cc1cc(N2CC(CN3CCN(c4ccc(-n5cnc6ccc(Oc7c(F)ccc(NS(=O)(=O)N8CC[C@@H](F)C8)c7C#N)cc6c5=O)cc4)CC3)C2)cc2c1C(=O)N([C@@H]1CCC(=O)NC1=O)C2 [Example 235, (3R)-N-(2-cyano-3-{[3-(4-{4-[(1-{2-[(3R)-2,6-dioxopiperidin-3-yl]-7-methyl-1-oxo-2,3-dihydro-1H-isoindol-5-yl}azetidin-3-yl)methyl]piperazin-1-yl}phenyl)-4-oxo-3,4-dihydroquinazolin-6-yl]oxy}-4-fluorophenyl)-3-fluoropyrrolidine-1-sulfonamide] | 50 to 500 nM | 35 to 70% | 1 to 10 nM | 35 to 70%
6 | N#Cc1c(NS(=O)(=O)N2CC[C@@H](F)C2)ccc(F)c1Oc1ccc2ncn(-c3ccc(N4CCN(CC5CC6(C5)CN(c5ccc7c(c5)CN([C@H]5CCC(=O)NC5=O)C7=O)C6)CC4)cc3)c(=O)c2c1 [Example 179, (3R)—N-(2-cyano-3-{[3-(4-{4-[(2-{2-[(3S)-2,6-dioxopiperidin-3-yl]-1-oxo-2,3-dihydro-1H-isoindol-5-yl}-2-azaspiro[3.3]heptan-6-yl)methyl]piperazin-1-yl}phenyl)-4-oxo-3,4-dihydroquinazolin-6-yl]oxy}-4-fluorophenyl)-3-fluoropyrrolidine-1-sulfonamide] | 50 to 500 nM | ≥ 70% | 1 to 10 nM | ≥ 70%
7 | N#Cc1c(NS(=O)(=O)N2CC[C@@H](F)C2)ccc(F)c1Oc1ccc2ncn(-c3cnc(N4CCC(CN5CC6(C5)CN(c5ccc7c(c5)C(=O)N(C5CCC(=O)NC5=O)C7=O)C6)CC4)nc3)c(=O)c2c1 (stereo partly drawn) [Example 133, (3R)-N-{2-cyano-3-[(3-{2-[4-({6-[2-(2,6-dioxopiperidin-3-yl)-1,3-dioxo-2,3-dihydro-1H-isoindol-5-yl]-2,6-diazaspiro[3.3]heptan-2-yl}methyl)piperidin-1-yl]pyrimidin-5-yl}-4-oxo-3,4-dihydroquinazolin-6-yl)oxy]-4-fluorophenyl}-3-fluoropyrrolidine-1-sulfonamide] | 50 to 500 nM | 35 to 70% | 1 to 10 nM | 35 to 70%
8 | Cn1c(=O)n(C2CCC(=O)NC2=O)c2cccc(N3CC4(CC(CN5CCN(c6ccc(-n7cnc8ccc(Oc9c(F)ccc(NS(=O)(=O)N%10CC[C@@H](F)C%10)c9C#N)cc8c7=O)cc6)CC5)C4)C3)c21 (stereo partly drawn) [Example 246, (3R)-N-{2-cyano-3-[(3-{4-[4-({2-[1-(2,6-dioxopiperidin-3-yl)-3-methyl-2-oxo-2,3-dihydro-1H-1,3-benzodiazol-4-yl]-2-azaspiro[3.3]heptan-6-yl}methyl)piperazin-1-yl]phenyl}-4-oxo-3,4-dihydroquinazolin-6-yl)oxy]-4-fluorophenyl}-3-fluoropyrrolidine-1-sulfonamide] | 50 to 500 nM | 35 to 70% | 1 to 10 nM | 35 to 70%
9 | N#Cc1c(NS(=O)(=O)N2CC[C@@H](F)C2)ccc(F)c1Oc1ccc2ncn(-c3ccc(N4CCC(c5ccc6c(c5)CN(C5CCC(=O)NC5=O)C6=O)CC4)nc3)c(=O)c2c1 (stereo partly drawn) [Example 136, (3R)-N-(2-cyano-3-{[3-(6-{4-[2-(2,6-dioxopiperidin-3-yl)-1-oxo-2,3-dihydro-1H-isoindol-5-yl]piperidin-1-yl}pyridin-3-yl)-4-oxo-3,4-dihydroquinazolin-6-yl]oxy}-4-fluorophenyl)-3-fluoropyrrolidine-1-sulfonamide] | 5 to 50 nM | ≤ 35% | 1 to 10 nM | 35 to 70%
10 | N#Cc1c(NS(=O)(=O)N2CC[C@@H](F)C2)ccc(F)c1Oc1ccc2ncn(-c3ccc(N4CCC(CN5CCN(c6ccc7c(c6)CN([C@H]6CCC(=O)NC6=O)C7=O)CC5)C4)cc3)c(=O)c2c1 (stereo partly drawn) [Example 217, (3R)-N-(2-cyano-3-{[3-(4-{3-[(4-{2-[(3S)-2,6-dioxopiperidin-3-yl]-1-oxo-2,3-dihydro-1H-isoindol-5-yl}piperazin-1-yl)methyl]pyrrolidin-1-yl}phenyl)-4-oxo-3,4-dihydroquinazolin-6-yl]oxy}-4-fluorophenyl)-3-fluoropyrrolidine-1-sulfonamide] | 50 to 500 nM | 35 to 70% | 1 to 10 nM | ≤ 35%
11 | N#Cc1c(NS(=O)(=O)N2CC[C@@H](F)C2)ccc(F)c1Oc1ccc2ncn(-c3cnc(C4(N5CCN(CC6CN(c7ccc(C8CCC(=O)NC8=O)cc7F)C6)CC5)CC4)nc3)c(=O)c2c1 (stereo partly drawn) [Example 105, (3R)-N-(2-cyano-3-{[3-(2-{1-[4-({1-[4-(2,6-dioxopiperidin-3-yl)-2-fluorophenyl]azetidin-3-yl}methyl)piperazin-1-yl]cyclopropyl}pyrimidin-5-yl)-4-oxo-3,4-dihydroquinazolin-6-yl]oxy}-4-fluorophenyl)-3-fluoropyrrolidine-1-sulfonamide] | 5 to 50 nM | 35 to 70% | 1 to 10 nM | ≤ 35%
12 | N#Cc1c(NS(=O)(=O)N2CC[C@@H](F)C2)ccc(F)c1Oc1ccc2ncn(-c3cccc(N4CCCC(CN5CCN(c6ccc7c(c6)CN([C@H]6CCC(=O)NC6=O)C7=O)CC5)C4)c3)c(=O)c2c1 (stereo partly drawn) [Example 93, (3R)-N-(2-cyano-3-{[3-(3-{3-[(4-{2-[(3S)-2,6-dioxopiperidin-3-yl]-1-oxo-2,3-dihydro-1H-isoindol-5-yl}piperazin-1-yl)methyl]piperidin-1-yl}phenyl)-4-oxo-3,4-dihydroquinazolin-6-yl]oxy}-4-fluorophenyl)-3-fluoropyrrolidine-1-sulfonamide] | 50 to 500 nM | 35 to 70% | 1 to 10 nM | ≤ 35%
13 | COc1ccc(N2CCC(CN3CCN(c4ccc(-n5cnc6ccc(Oc7c(F)ccc(NS(=O)(=O)N8CC[C@@H](F)C8)c7C#N)cc6c5=O)cn4)CC3)CC2)cc1C(=O)NC1CCC(=O)NC1=O (stereo partly drawn) [Example 141, 5-(4-{[4-(5-{6-[2-cyano-6-fluoro-3-({[(3R)-3-fluoropyrrolidin-1-yl]sulfonyl}amino)phenoxy]-4-oxo-3,4-dihydroquinazolin-3-yl}pyridin-2-yl)piperazin-1-yl]methyl}piperidin-1-yl)-N-(2,6-dioxopiperidin-3-yl)-2-methoxybenzamide] | 50 to 500 nM | ≤ 35% | 1 to 10 nM | ≤ 35%
